PMC8633346, “Engineering of a fluorescent chemogenetic reporter with tunable color for advanced live-cell imaging” (Nature Communications, 2021)

Legend:
[1] = target: T1, pFAST (Halorhodospira halophila, UniProt P16113, A30V/C69G/D97P/F96I/G21E/G25R/K17N/M100R/M109L/Q41L/Q99S/S117R/S72T/T101G/V83A/Y94W/Y98T); experiment: fluorescence titration, one-site fit
T1 construct: gene pyp; engineered PYP variant; changes relative to FAST: K17N, G21E, G25R, A30V, Q41L, S72T, V83A, M95T, M109L, S117R (M95T restores T95 of PYP); N-terminal His-tag, E. coli Rosetta (DE3) pLys, Ni-NTA; FAST 14 kDa
T1 sequence (P16113 1-125 K17N/G21E/G25R/A30V/Q41L/C69G/S72T/V83A/Y94W/F96I/D97P/Y98T/Q99S/M100R/T101G/M109L/S117R): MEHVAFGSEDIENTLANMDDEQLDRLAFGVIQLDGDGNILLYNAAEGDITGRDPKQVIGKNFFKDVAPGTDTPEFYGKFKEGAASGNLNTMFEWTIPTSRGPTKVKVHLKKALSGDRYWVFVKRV

[2] = target: T2, pFAST (Halorhodospira halophila, UniProt P16113, K17N/G21E/G25R/A30V/Q41L/C69G/S72T/V83A/Y94W/F96I/D97P/Y98T/Q99S/M100R/T101G/M109L/S117R); experiment: fluorescence titration, one-site fit; format: binding; settings: PBS pH 7.4
T2 construct: gene pyp; engineered PYP variant; changes relative to FAST: K17N, G21E, G25R, A30V, Q41L, S72T, V83A, M95T, M109L, S117R (M95T restores T95 of PYP); N-terminal His-tag, E. coli Rosetta (DE3) pLys, Ni-NTA; FAST 14 kDa
T2 sequence (P16113 1-125 K17N/G21E/G25R/A30V/Q41L/C69G/S72T/V83A/Y94W/F96I/D97P/Y98T/Q99S/M100R/T101G/M109L/S117R): T1 sequence (P16113 1-125 K17N/G21E/G25R/A30V/Q41L/C69G/S72T/V83A/Y94W/F96I/D97P/Y98T/Q99S/M100R/T101G/M109L/S117R)

SMILES	Kd [1]	KD [2]
COc1cc(C=C2SC(=S)NC2=O)cc(OC)c1O [HBR-3,5DOM, 4-hydroxy-3,5-dimethoxybenzylidene rhodanine]	60 nM	
Cc1cc(C=C2SC(=O)NC2=O)ccc1O [HBT-3M, (4-hydroxy-3-methylbenzylidene)thiazolidine-2,4-dione]		KD) values of their assembly with pFAST are indicated into brackets
COc1cc(C=C2SC(O)=NC2=S)cc(OC)c1O [HBIR-3,5DOM, (4-hydroxy-3,5-dimethoxylbenzylidene)-4-thioxothiazolidin-2-one]	40 nM	
COc1cc(/C=C2\SC(=O)NC2=O)cc(OC)c1O [HBT-3,5DOM, (4-hydroxy-3,5-dimethoxybenzylidene)thiazolidine-2,4-one]	200 nM	
Cc1cc(C=C2SC(=N)NC2=O)cc(C)c1O [HBP-3,5DM, (4-hydroxy-3,5-dimethylbenzylidene)-2-iminothiazolidin-4-one]	150 nM	
Cc1cc(C=C2OC(=O)NC2=O)ccc1O [HBO-3M, (4-hydroxy-3-methylbenzylidene)oxazolidine-2,4-dione]	430 nM	
Cc1cc(/C=C2\SC(=S)N(CC(=O)O)C2=O)cc(C)c1O [HBRAA-3,5DM, 5-((4-hydroxy-3,5-dimethylbenzylidene)-4-oxo-2-thioxothiazolidin-3-yl) acetic acid]	1800 nM	
Cc1cc(C=C2SC(=N)NC2=O)ccc1O [HBP-3M, (4-hydroxy-3-methylbenzylidene)-2-iminothiazolidin-4-one]	220 nM	
COc1cc(C=C2SC(=N)NC2=O)cc(OC)c1O [HBP-3,5DOM, (4-hydroxy-3,5-dimethoxybenzylidene)-2-iminothiazolidin-4-one]	1900 nM	
Cc1cc(C=C2SC(=O)NC2=O)cc(C)c1O [HBT-3,5DM, (4-hydroxy-3,5-dimethylbenzylidene)thiazolidine-2,4-dione]	170 nM	
Cc1cc(C=C2OC(=O)NC2=O)cc(C)c1O [HBO-3,5DM, (4-hydroxy-3,5-dimethylbenzylidene)oxazolidine-2,4-dione]	2400 nM	
Cc1cc(C=C2SC(=S)NC2=O)cc(C)c1O [HBR-3,5DM, 4-hydroxy-3,5-dimethylbenzylidene rhodanine]	10 nM	
